Reference: patent US20260294863A1, “METHOD OF TREATING FIBROTIC-RELATED CONDITION” (YISSUM RESEARCH DEVELOPMENT COMPANY OF THE HEBREW …, priority 2023, published 2026)
Entries after “also recorded” stand apart in the source; their conditions may differ.

What was measured:
[1] = tested on: bleomycin-induced lung fibrosis; assay: Lung fibrosis score / collagen content in bleomycin-induced lung fibrosis; format: in vivo, C57BL/6JOlaHsd mice
Protocol: (§1) The animal model of bleomycin-induced lung fibrosis is widely used to characterize the potential inhibitory effect of newly developed drugs (Distler et al. 2019). Experiments were performed in C57BL/6JOlaHsd male and female mice aged 12-13 weeks. Male mice weighed 23-27.3 g and female mice, 19.4-21.1 g. They were housed under pathogen-free conditions, up to 6 per cage, in IVC cages under a controlled temperature of 22-24° C., humidity and alternating 12-h light/dark cycles and provided with food and water ad libitum. In order to minimize the stress of daily injection, ladostigil (5 mg/Kg/day) was administered by micro-osmotic pumps, implanted subcutaneously under ketamine/xylazine anesthesia, 5 days before administration of bleomycin, and delivered for 3 weeks to mice of each sex. Saline (2-3/sex) and bleomycin controls were anesthetized as described above. Bleomycin solution (0.25 mg/kg in 50 μl) was instilled into the lumen of the trachea as shown in a video by Ehrentraut et al. (2019). […] Mice were weighed daily and sacrificed on day 21. Bronchial fluid was collected as described in Ehrentraut et al. (2019). TNFα and IL-6 in the bronchial fluid lavage was measured by ELISA as described in the preceding section.
Specimens taken from the left lung were embedded in paraffin and cut into 5 μm-thick slices. They were put on slides and paraffin was removed. They were rehydrated and stained with a solution of Sirius red (100 mg/100 ml of [COMPOUND LEFT OUT], rinsed in distilled water until clear, dehydrated and mounted in a resinous medium. The red stain (also called “Sirius red” stain) is one of the best understood histochemical techniques. It relies on the birefringent properties of collagen and is much more specific than the other common collagen stains, Pulmonary fibrosis was evaluated on a score of 0-4 on 15-20 different fields taken from each lung section, according to the area and intensity of fibrotic staining in the field, excluding that in blood vessels. Two independent scientists blinded to the treatment performed the analysis. For TGFβ1 staining, slides were deparaffinized and rehydrated. Antigen retrieval was performed in Tris-based buffer, pH 9.0. Endogenous peroxidase activity was quenched by incubation in 3% H2O2. The tissue was permeabilized with Triton X-100 0.1% in PBS. After blocking, sections were incubated with primary antibody: diluted rabbit recombinant monoclonal TGFβ1 antibody (Abcam ab215715) over night, at 4° C. Slices were further incubated with the secondary antibody: ImmPRESS®-HRP Goat Anti-Rabbit IgG Polymer Detection Kit, Peroxidase (Vector labs VE-MP-7451-15) at room temperature. For color development, sections were incubated in peroxidase substrate solution DAB, at room temperature until desired stain intensity developed. They were then counterstained with filtered hematoxylin and cosin, cleared and mounted.
Experiments were performed in C57BL/6JOlaHsd male mice aged 12-13 weeks as described for ladostigil. AN1284 (2.5 mg/kg/day) was administered by micro-osmotic pumps, implanted subcutaneously under ketamine/xylazine anesthesia, 5 days before administration of bleomycin and delivered for 3 weeks. Mice were weighed daily, sacrificed on day 21 and bronchial fluid was collected. Fibrosis was measured by staining with Sirius red as described for ladostigil. TNFα and IL-6 in the bronchial fluid lavage was measured by ELISA as described for ladostigil.

[2] = Mortality in bleomycin-induced lung fibrosis; format: in vivo, C57BL/6JOlaHsd mice
Protocol: as §1, with “In order to minimize the stress of daily injection, ladostigil (5 mg/Kg/day) was administered by micro-osmotic pumps, implanted subcutaneously under ketamine/xylazine anesthesia, 5 days before administration of bleomycin, and delivered for 3 weeks to mice of each sex.” left out

IL-6 = IL-6 in bronchial fluid, bleomycin-induced lung fibrosis (ELISA); format: in vivo, C57BL/6JOlaHsd mice; details: ladostigil, bleomycin-induced lung fibrosis
Protocol: (§2) The animal model of bleomycin-induced lung fibrosis is widely used to characterize the potential inhibitory effect of newly developed drugs (Distler et al. 2019). Experiments were performed in C57BL/6JOlaHsd male and female mice aged 12-13 weeks. Male mice weighed 23-27.3 g and female mice, 19.4-21.1 g. They were housed under pathogen-free conditions, up to 6 per cage, in IVC cages under a controlled temperature of 22-24° C., humidity and alternating 12-h light/dark cycles and provided with food and water ad libitum. In order to minimize the stress of daily injection, ladostigil (5 mg/Kg/day) was administered by micro-osmotic pumps, implanted subcutaneously under ketamine/xylazine anesthesia, 5 days before administration of bleomycin, and delivered for 3 weeks to mice of each sex. Saline (2-3/sex) and bleomycin controls were anesthetized as described above. Bleomycin solution (0.25 mg/kg in 50 μl) was instilled into the lumen of the trachea as shown in a video by Ehrentraut et al. (2019). […] TNFα and IL-6 in the bronchial fluid lavage was measured by ELISA as described in the preceding section.
(§3) Experiments were performed in C57BL/6JOlaHsd male mice aged 12-13 weeks as described for ladostigil. […] Fibrosis was measured by staining with Sirius red as described for ladostigil. TNFα and IL-6 in the bronchial fluid lavage was measured by ELISA as described for ladostigil.

TGFβ = assay: Cells containing TGFβ in the lung, bleomycin-induced lung fibrosis; format: in vivo, C57BL/6JOlaHsd mice; details: ladostigil + bleomycin; p<0.05
Protocol: The animal model of bleomycin-induced lung fibrosis is widely used to characterize the potential inhibitory effect of newly developed drugs (Distler et al. 2019). Experiments were performed in C57BL/6JOlaHsd male and female mice aged 12-13 weeks. Male mice weighed 23-27.3 g and female mice, 19.4-21.1 g. They were housed under pathogen-free conditions, up to 6 per cage, in IVC cages under a controlled temperature of 22-24° C., humidity and alternating 12-h light/dark cycles and provided with food and water ad libitum. […] TNFα and IL-6 in the bronchial fluid lavage was measured by ELISA as described in the preceding section.
Specimens taken from the left lung were embedded in paraffin and cut into 5 μm-thick slices. […] They were rehydrated and stained with a solution of Sirius red (100 mg/100 ml of [COMPOUND LEFT OUT], rinsed in distilled water until clear, dehydrated and mounted in a resinous medium. The red stain (also called “Sirius red” stain) is one of the best understood histochemical techniques. It relies on the birefringent properties of collagen and is much more specific than the other common collagen stains, Pulmonary fibrosis was evaluated on a score of 0-4 on 15-20 different fields taken from each lung section, according to the area and intensity of fibrotic staining in the field, excluding that in blood vessels. […]

TNFα = TNFα in bronchial fluid, bleomycin-induced lung fibrosis (ELISA); format: in vivo, C57BL/6JOlaHsd mice; details: ladostigil, bleomycin-induced lung fibrosis
Protocol: as §2, §3

skin sclerosis = assay: Dermal and hypodermal thickness in bleomycin-induced skin sclerosis; format: in vivo, C57BL/6 mice; details: ladostigil 10 mg/kg/day + bleomycin; p<0.05
Protocol: Male C57BL/6 mice aged 8 weeks were housed under pathogen-free conditions at a controlled temperature of 22-24° C., humidity and alternating 12-h light/dark cycles and provided with food and water ad libitum. Skin sclerosis was induced as described by Ravanetti et al, (2020). A small incision was made in the skin at the back caudal to the scapulae and subcutaneous pocket was created into which an Alzet micro-osmotic pump was implanted, and the incision closed with two stiches and a surgical clip. The pumps contained bleomycin, (delivered at the rate of 60 U/kg body weight) or saline (control) and were removed 10 days after implantation. The mice were monitored daily until they recovered completely and weighed twice weekly from the beginning of the experiment.
Ladostigil (10 mg/kg/day) was administered in the drinking fluid to 10 mice, housed 2/cage, from 3 days before bleomycin pump installation until the end of the experiment. The fluid intake of the mice was measured daily. The dose of ladostigil was adjusted accordingly. Bleomycin alone, (10 mice) and saline controls (6 mice) received regular drinking fluid.
Skin was harvested on the gluteal region to avoid dermal fibrosis artifact due to proximity to the site of implant. For histological assessment, the samples were dehydrated in a graded ethanol series, clarified in xylene, and paraffin embedded. They were mounted on slides and paraffin was removed. Sections of 5 μm thickness were cut with a rotary microtome and stained with hematoxylin and eosin (H&E)

C#CCN[C@@H]1CCc2ccc(OC(=O)N(C)CC)cc21 [Ladostigil, 6-(N-ethyl, N-methylcarbamyloxy)-N propargyl-1 (R)-aminoindan hemitartrate]
fibrosis (overall conclusion) ([1]; bleomycin-induced lung fibrosis murine model): shown to reduce fibrosis
collagen deposition (hydroxyproline) ([1]; both sexes, 5 mg/Kg/day): reduced collagen deposition
fibrosis (score) ([1]; females, 2.5 and 5 mg/Kg/day): significantly reduced fibrosis
fibrosis (score) ([1]; males, 5 and 10 mg/kg/day): significantly reduced fibrosis
anti-inflammatory effect in bleomycin-induced lung fibrosis model ([1]; mouse, in vivo): does not have an anti-inflammatory effect
mortality ([2]; females, ladostigil+bleomycin, 2.5 mg/kg (2/10)): 20%
mortality ([2]; females, ladostigil+bleomycin, 5 mg/kg (1/20)): 5%
mortality (animals died/total) ([2]; females, ladostigil+bleomycin, dose not given): 1/11
mortality ([2]; males, bleomycin+ladostigil 5 mg/kg, day 17 (2/9)): 22%
mortality ([2]; males, ladostigil 10 mg/kg, day 17 (1/11)): 9%
IL-6 in bronchial fluid (IL-6): generally not affected; also recorded: did not reduce
number of cells containing TGFβ in the lung (TGFβ): significantly reduced the number of cells containing TGFβ
TNFα in bronchial fluid (TNFα): generally not affected; also recorded: did not reduce
dermal thickness (skin sclerosis): significant reduction of dermal thickness
hypodermal thickness (skin sclerosis): increase of hypodermal thickness
